Experimental data from US20110294721A1, “ANTIMICROBIAL PEPTIDES” (priority 2008, published 2011).
pIC50: −log10 of the molar value. Where “and” joins values, the source holds several entries; their conditions need not be identical. Equal entries are not always repeated. No end group written: not given here.

Key:
Alternaria alternata = test: MIC in-vitro inhibition assay, antifungal (Example 2); type: cell-based; settings: complete inhibition of spore germination/mycelial growth; Table 1
Method: (§1) In-vitro inhibition assays were performed in sterile flat-bottom 96-well plates (Greiner bio-one, Frickenhausen). Antimicrobial peptides were dissolved in 0.01% acetic acid containing 0.2% BSA (500 μg/ml), filter sterilized and stored at −20° C. For inhibition assays dilutions of peptides ranging from 5 to 200 μg/ml were prepared and 10 μl (antibacterial assay) or 20 μl (antifungal assay) of each concentration was loaded per well.
(§2) Spores of fungi were collected by water washes of sporulating cultures grown on 2% malt extract agar and spore concentration was determined by microscopy. The concentration of the spores was adjusted to 1.5-2×10^3 spores/ml in 2% malt extract medium and 80 μl of fungal spores were added per well. The final peptide concentrations used in the fungal inhibition assays were 0, 2, 4, 10, 20, 40, and 100 μg/ml. After overnight incubation at room temperature the plate were put on a rotary shaker (300 rpm) for further two days to ensure consistantly growth. Antifungal effects of the peptides were determined by a microplate reader (Altemaria, Fusarium) at OD590 nm or by visual screening of the plates (Bottytis, Cladosporium).
(§3) The lowest peptide concentration leading to complete inhibition of bacterial growth or spore germination/mycelial growth (minimal inhibition concentration, MIC) was determined for each organism-peptide combination. For each peptide concentration two identical inhibition assays were performed.

Botrytis cinerea = test: as above; type: cell-based; settings: complete inhibition of spore germination/mycelial growth; Table 1
Method: as §1, §2, §3

Cladosporium herbarum = test: as above; type: cell-based; settings: complete inhibition of spore germination/mycelial growth; Table 1
Method: as §1, §2, §3

[1] = system: Pectobacterium carotovorum sub. carotovorum; settings: complete inhibition of bacterial growth; overnight 25° C.; Table 1
Xanthomonas vesicatoria [2] = settings: complete inhibition of bacterial growth; overnight 25° C.; Table 1
[3] = system: Pseudomonas syringae pv. tomato; settings: complete inhibition of bacterial growth; overnight 25° C.; Table 1
[4] = system: Pseudomonas syringae pv. syringae; settings: complete inhibition of bacterial growth; overnight 25° C.; Table 1
Pseudomonas corrugata [5] = settings: complete inhibition of bacterial growth; overnight 25° C.; Table 1
Pseudomonas corrugata [6] = settings: Table 2; for LC (lethal concentration): 100% inhibition after at least 4 days of incubation; for MIC: >90% inhibition, 1-2 days at 25° C.
Method: as §1
(§4) Bacteria colonies from overnight agar plate cultures were resuspended into 5 ml LB-medium or HPG-medium (OD600 nm=0.08-0.1) and diluted into LB-medium/HPG-medium (1:100). 90 μl of this suspension containing about 10^5-10^6 CFU/ml of tested bacteria were added to each well resulting in final peptide concentrations of 0, 0.5, 1, 2, 5, 10, and 20 μg/ml. […] The lowest concentration, in which there is no observable growth (>90% inhibition) is referred to as minimal inhibitory concentration (MIC). […] For each peptide concentration two identical inhibition assays were performed.

[7] = system: Clavibacter michiganensis; test: MIC and lethal concentration (LC) assay (Example 3); type: cell-based; settings: Table 2; for LC (lethal concentration): 100% inhibition after at least 4 days of incubation; for MIC: >90% inhibition, 1-2 days at 25° C.
Method: as §1, §4

[8] = system: Pectobacterium carotovorum; test: as above; type: cell-based; settings: Table 2; for LC (lethal concentration): 100% inhibition after at least 4 days of incubation; for MIC: >90% inhibition, 1-2 days at 25° C.
Method: as §1, §4

[9] = system: Pseudomonas syringae pv. syringae; test: as above; type: cell-based; settings: Table 2; for LC (lethal concentration): 100% inhibition after at least 4 days of incubation; for MIC: >90% inhibition, 1-2 days at 25° C.
Method: as §1, §4

[10] = system: Pseudomonas syringae pv. tomato; test: as above; type: cell-based; settings: Table 2; for LC (lethal concentration): 100% inhibition after at least 4 days of incubation; for MIC: >90% inhibition, 1-2 days at 25° C.
Method: as §1, §4

Xanthomonas vesicatoria [11] = test: as above; type: cell-based; settings: Table 2; for LC (lethal concentration): 100% inhibition after at least 4 days of incubation; for MIC: >90% inhibition, 1-2 days at 25° C.
Method: as §1, §4

[12] = system: human immundeficiency virus (HIV); type: cell-based; settings: HeLa cells pre-treated 30 min at 37° C.; red fluorescence after 72 h; read-out: IC50, concentration where the infection is decreased by 50% (compared to non-treated controls)
Method: Cells were pretreated with 6.3 μg/ml SP13-3 and SP13-14 or buffer for 30 min at 37° C. before addition of virus particles. […] Shown is an overlay of pictures taken under transmitted light and fluorescence after 72 hours incubation. The viability of the HeLa cells was determined by measuring the activity of the mitochondrial dehydrogenase.
To measure the activity of the designed oligopeptides against human immundeficiency virus (HIV) a fluorescence-based reporter system was used. HeLa cells (LC5-RIC) harbour a reporter gene, which regulates in dependency of HIV Rev and Tat proteins the synthesis of a red fluorescing protein. In this way the infection of the HeLa cells (LC5-RIC) is indicated and the infection rate can be quantified using a fluorescence microplate reader.
(§5) Antimicrobial oligopeptides were dissolved in 0.01% acetic acid containing 0.2% BSA (500 μg/ml), filter sterilized and stored at −20° C. […] (in 5% CO2). Afterwards, virus particles were added to the pre-treated HeLa cells and the infection was quantified by measuring red fluorescence with a fluorescence microplate reader after 72 h incubation. The viability of the HeLa cells was determined by measuring the activity of the mitochondrial dehydrogenase according to Lindl and Bauer (1994) and Mosmann (1983).

HeLa cells (LC5-RIC) = type: cell-based, human
Method: as §5

Row | Substance | LC (lethal concentration) (Pseudomonas corrugata [6]) | MIC (Pseudomonas corrugata [6]) | LC (lethal concentration) [7] | MIC [7] | LC (lethal concentration) [8] | MIC [8] | LC (lethal concentration) [9] | MIC [9] | LC (lethal concentration) [10] | MIC [10] | LC (lethal concentration) (Xanthomonas vesicatoria [11]) | MIC (Xanthomonas vesicatoria [11]) | also measured
1 | KRKLIFLAAFLAALALFKKR-NH2 [SP15] | – | – | – | – | – | – | – | – | – | – | – | – | Minimal inhibition concentration (MIC) (Alternaria alternata): >100 µg/mL; Minimal inhibition concentration (MIC) (Botrytis cinerea): >100 µg/mL; Minimal inhibition concentration (MIC) (Cladosporium herbarum): 40 µg/mL; Minimal inhibition concentration (MIC) [1]: >40 µg/mL; Minimal inhibition concentration (MIC) (Xanthomonas vesicatoria [2]): 20 µg/mL; Minimal inhibition concentration (MIC) [3]: 40 µg/mL; Minimal inhibition concentration (MIC) [4]: >40 µg/mL; Minimal inhibition concentration (MIC) (Pseudomonas corrugata [5]): >40 µg/mL
2 | KRRILIRILKLIIKLILKKR-NH2 [SP13-5] | 10/>10 μg/ml | 10/>10 μg/ml | > 10 µg/mL | 2.5 µg/mL | >10/>10 μg/ml | >10/>10 μg/ml | >10/>10 μg/ml | >10/>10 μg/ml | 5.0 µg/mL | 2.5 µg/mL | 5.0 µg/mL | 1.0 µg/mL | –
3 | KRRKAIKILKLIAKLIRKKR-NH2 [SP13-8] | 0.5 µg/mL | 0.25 µg/mL | 0.25 µg/mL | 0.1 µg/mL | >10/>10 μg/ml | >10/>10 μg/ml | >10/>10 μg/ml | >10/>10 μg/ml | 10/>10 μg/ml | 10/>10 μg/ml | 0.5 µg/mL | 0.1 µg/mL | –
4 | KRRKLAFRAFRFALKAVLKK-NH2 [SP13-13] | 1.0 µg/mL | 0.25 µg/mL | 2.5 µg/mL | 0.5 µg/mL | >10/>10 μg/ml | >10/>10 μg/ml | 0.5/0.5 μg/ml | 0.5/0.5 μg/ml | 5.0 µg/mL | 2.5 µg/mL | 0.5 µg/mL | 0.25 µg/mL | –
5 | KRRKLAFRLFRLFLKLVLKK-NH2 [SP13-14] | > 10 µg/mL | 2.5 µg/mL | 2 to 5 µg/mL | 0.5 µg/mL | >10/>10 μg/ml | >10/>10 μg/ml | 10 µg/mL | 5.0 µg/mL | 5.0 µg/mL | 2.5 µg/mL | 2.5 µg/mL | 0.25 µg/mL | pIC50 [12]: 5.92; negative/toxic effect on test cells (HeLa cells) (HeLa cells (LC5-RIC)): No negative/toxic effect
6 | KRRKLIKILKLIAKLIRKKR-NH2 [SP13-7] | 2.5 µg/mL | 0.5 µg/mL | 0.5 µg/mL | 0.25 µg/mL | >10/>10 μg/ml | >10/>10 μg/ml | >10/>10 μg/ml | >10/>10 μg/ml | 10/>10 μg/ml | 10/>10 μg/ml | 0.25 µg/mL | 0.1 µg/mL | –
7 | KRRKLIKILKLIIKLIRKKR-NH2 [SP13-6] | – | 2.5 µg/mL | 1.0 µg/mL | 0.1 µg/mL | >10/>10 μg/ml | >10/>10 μg/ml | 2.5 µg/mL | 1.0 µg/mL | 5.0 µg/mL | 2.5 µg/mL | 0.5 µg/mL | 0.1 µg/mL | –
8 | KRRLALFRAFRLALKSVLKK-NH2 [SP13-10] | 0.5 µg/mL | 0.25 µg/mL | 0.25 µg/mL | 0.1 µg/mL | >10/>10 μg/ml | >10/>10 μg/ml | >10/>10 μg/ml | >10/>10 μg/ml | 1.0/1.0 μg/ml | 1.0/1.0 μg/ml | 0.25 µg/mL | 0.1 µg/mL | –
9 | KRRLALFRLFRLALKLVLKK-NH2 [SP13-11] | >10/>10 μg/ml | >10/>10 μg/ml | 2.5/2.5 μg/ml | 2.5/2.5 μg/ml | >10/>10 μg/ml | >10/>10 μg/ml | >10/>10 μg/ml | >10/>10 μg/ml | 5.0 µg/mL | 2.5 µg/mL | 5.0 µg/mL | 2.5 µg/mL | pIC50 [12]: 5.68; negative/toxic effect on test cells (HeLa cells) (HeLa cells (LC5-RIC)): No negative/toxic effect
10 | KRRLFLFRLFRLFLRLFLKK-NH2 [SP13-12] | 10/>10 μg/ml | 10/>10 μg/ml | 5.0 µg/mL | 2.5 µg/mL | >10/>10 μg/ml | >10/>10 μg/ml | >10/>10 μg/ml | >10/>10 μg/ml | > 10 µg/mL | 5.0 µg/mL | 5.0 µg/mL | 2.5 µg/mL | –
11 | KRRLIARILRLAIRALVKKR-NH2 [SP13-1] | 2.5/2.5 μg/ml | 2.5/2.5 μg/ml | 2.5 µg/mL | 0.5 µg/mL | >10//>10 μg/ml | >10//>10 μg/ml | 2.5 µg/mL | 1.0 µg/mL | 5.0 µg/mL and > 10 µg/mL | 1.0 µg/mL | 1.0 µg/mL | 0.5 µg/mL | –
12 | KRRLIFRILKLFFRFLVKKR-NH2 [SP13-4] | > 10 µg/mL | 5.0 µg/mL | 2.5 µg/mL | 1.0 µg/mL | >10/>10 μg/ml | >10/>10 μg/ml | 10/>10 μg/ml | 10/>10 μg/ml | >10/>10 μg/ml | >10/>10 μg/ml | 2.5/2.5 μg/ml | 2.5/2.5 μg/ml | –
13 | KRRLILRILRLAIRALVKKR-NH2 [SP13-2] | 5.0/5.0 μg/ml | 5.0/5.0 μg/ml | 1.0 µg/mL | 0.25 µg/mL | >10/>10 μg/ml | >10/>10 μg/ml | 10 µg/mL | 5.0 µg/mL | 10/>10 μg/ml | 10/>10 μg/ml | 0.5 µg/mL | 0.25 µg/mL | –
